Data reported in ChEMBL document CHEMBL1201862, “PubChem BioAssay data set” (2004).
Activity calls are given as the source filed them.

Columns and labels:
HEK293 = assay: cells; type: functional, cell-based; details: Homo sapiens
[1] = molecular target: Nuclear receptor subfamily 0 group B member 1 (Homo sapiens, UniProt P51843); assay: Luminescence-based cell-based high throughput dose response assay for inhibitors of the orphan nuclear receptor subfamily 0, group B, member 1 (DAX1; NR0B1). [Related pubchem assays (depositor defined):AID504766, AID504790]; type: functional
[2] = Luminescence Cell-Based Dose Retest to Confirm Inhibitors of Cancer Stem Cells. [Related pubchem assays (depositor defined):AID2717, AID2721]; type: functional; details: Homo sapiens
CAAX prenyl protease 2 = molecular target: T1, CAAX prenyl protease 2 (Saccharomyces cerevisiae S288c, UniProt Q03530); type: biochemical
T1 sequence (Q03530 whole entry): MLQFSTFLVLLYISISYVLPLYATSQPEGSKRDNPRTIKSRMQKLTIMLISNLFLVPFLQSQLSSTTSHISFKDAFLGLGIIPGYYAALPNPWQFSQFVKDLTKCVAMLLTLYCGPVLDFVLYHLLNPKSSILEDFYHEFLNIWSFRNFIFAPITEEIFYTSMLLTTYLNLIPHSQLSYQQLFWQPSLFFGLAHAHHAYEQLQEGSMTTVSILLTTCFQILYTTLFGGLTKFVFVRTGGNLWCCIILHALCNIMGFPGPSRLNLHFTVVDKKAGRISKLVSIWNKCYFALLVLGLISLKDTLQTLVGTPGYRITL

[3] = viability loss of HMLE_sh_eGFP cells – cell-based, luminescence, counter-screen for HMLE_sh_ECad selective toxicity project, dose response (AID 463074); type: functional, Homo sapiens;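 also: HMLE human mammary epithelial cells expressing control shRNA against eGFP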
Jurkat = assay: blockers of NF-kB activation in T cells – Jurkat, luciferase reporter, luminescence, B- and T-cell, dose response (AID 489004); type: functional, cell-based; details: Homo sapiens;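 also: NF-kB luciferase reporter Jurkat cells stimulated with PMA plus ionomycin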
[4] = HEK-293T viability loss, compound-treated – cell-based, uHTS hits, cytotoxicity control for B/T-cell NF-kB inhibitor project, dose response (AID 489019); type: functional;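 also: IC50 reflects cytotoxicity as loss of cell viability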

Chain of Nuclear receptor subfamily 0 group B member 1 (P51843 whole entry): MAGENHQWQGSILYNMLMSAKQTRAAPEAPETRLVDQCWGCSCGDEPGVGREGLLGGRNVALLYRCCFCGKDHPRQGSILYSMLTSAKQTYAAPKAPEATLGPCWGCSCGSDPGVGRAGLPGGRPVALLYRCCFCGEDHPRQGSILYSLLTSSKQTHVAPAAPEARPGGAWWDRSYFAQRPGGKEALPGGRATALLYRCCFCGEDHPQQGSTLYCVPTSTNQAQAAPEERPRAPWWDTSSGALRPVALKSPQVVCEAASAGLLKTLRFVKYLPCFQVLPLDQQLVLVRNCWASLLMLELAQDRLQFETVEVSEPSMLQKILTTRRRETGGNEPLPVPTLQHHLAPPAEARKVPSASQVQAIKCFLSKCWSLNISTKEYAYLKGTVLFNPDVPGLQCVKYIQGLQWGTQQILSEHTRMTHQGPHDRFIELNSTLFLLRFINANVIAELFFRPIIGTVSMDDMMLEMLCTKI

SMILES: CNC(=O)c1ncnnc1N(C)C(=O)NCc1ccccc1
- IC50 (HEK293): > 67.5 µM (inactive)
- IC50 [1]: > 67.5 µM (inactive)

SMILES: CCCCN=C(S)N=Nc1c(O)n(Cc2ccccc2)c2ccccc12
- AC50 [2]: 61.5 µM (active)
- AC50 (CAAX prenyl protease 2): 0.601 µM (active)
- AC50 [3]: 119 µM (active)

SMILES: N=c1ccn2c(n1)O[C@H]1[C@@H](CO)[C@H](O)O[C@H]12
- IC50 (Jurkat): > 80 µM (inactive)
- IC50 [4]: > 80 µM (inactive)
